Measurements taken from patent US20230339871A1, “COMPOUNDS AND METHODS OF MODULATING 17B-HYDROXYSTEROID DEHYDROGENASE TYPE 13” (METREA BIOSCIENCES, INC., priority 2020, published 2023).

Key:
[1] = test system: IL-8; assay: IL-8 gene expression in HepG2 cells overexpressing HSD17B13 under fatty acid challenge; format: cell-based, human
Method: (§1) To examine the effect of HSD17B13 inhibitors on inflammatory cytokine expression HepG2 cells were exposed to various concentrations of HSD17B13 inhibitors. Briefly, HepG2 cells, an immortalized human liver cancer cell line, were modified to overexpress HSD17B13. Cells were grown in EMEM (ATCC) with 10% FBS and penicillin/streptomycin. One day prior to transfection 750,000 cells were plated per well in a 6 well plate and cultured overnight. […] of pCMV6-Entry-HSD17B13 or empty vector (Origene) were transfected using Lipofectamine 3000 (Invitrogen) and the cells were cultured for 24 hours. Cells were split into selection media ([…] G418 (Gibco)) and a stable pool was established and verified by qPCR and western blotting using an anti-Flag antibody (Genscript). HepG2 cells overexpressing HSD17B13 or empty vector control, were seeded at 400,000 cells per well in 12 well plates and cultured overnight. Media was replaced with serum-free EMEM and cultured an additional night. […]
(§2) […] RNA quality and concentration were determined on a Nanodrop. cDNA was synthesized from 1 μg RNA using iScript reverse transcription supermix (Biorad) and rtPCR performed with 1 μl cDNA using SsoAdvanced Universal Probes Supermix (Biorad). […]

[2] = target: T1, recombinant human full-length HSD17B13 protein (Homo sapiens, UniProt Q7Z5P4); assay: HSD17B13 96 luminescence inhibition assay (NAD(P)H-Glo); format: biochemical
T1 construct: recombinant human full-length HSD17B13 protein; 6xHis (C); made in house; host or cells: HEK293E-253/FH
T1 sequence (Q7Z5P4 20-300): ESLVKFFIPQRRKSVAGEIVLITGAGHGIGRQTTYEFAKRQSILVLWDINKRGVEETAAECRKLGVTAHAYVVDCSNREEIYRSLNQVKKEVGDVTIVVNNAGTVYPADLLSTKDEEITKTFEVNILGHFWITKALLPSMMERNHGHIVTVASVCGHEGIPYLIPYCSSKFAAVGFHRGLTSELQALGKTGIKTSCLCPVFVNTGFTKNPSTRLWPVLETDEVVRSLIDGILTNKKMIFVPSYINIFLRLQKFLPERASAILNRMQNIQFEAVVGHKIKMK
Method: Compounds of the present disclosure were tested for inhibition of HSD17B13 using the following protocol. Briefly, recombinant human full-length HSD17B13 protein with a 6X-C-terminal His tag was expressed in cell line HEK293E-253/FH and purified using Ni^2+-affinity purification. Enzymatic activity was determined through the production of NADH using the NAD(P)H-Glo Detection System (Promega). The inhibitory activity of test compounds was determined in reactions performed at 30° C. in assay buffer consisting of 25 mM EPPS (8.0), 125 mM NaCl, 0.03% Triton X-100, 0.03% BSA, with […] steroid substrate (1,3,5(10), 7-estratetraen-3, 17b-diol (Steraloids E0580)) added from a 2.5 mM DMSO stock and 500 mM NAD. The final percentage of DMSO was 4.5%. After a one-hour incubation, a 20% volume of luciferase Glo-reagent was added and light units captured on a Victor V Plate Reader (Perkin Elmer).
Concentration-response curves for inhibitors were normalized to control samples containing enzyme only (negative control) and sample without enzyme (positive control). 50% inhibition (IC50) values were determined using a nonlinear least squares fit of the data to a four-parameter equation using Prism 6.0 (GraphPad Software, San Diego).

[3] = test system: IL-32; assay: IL-32 gene expression in HepG2 cells overexpressing HSD17B13 under fatty acid challenge; format: cell-based, human
Method: To examine the effect of HSD17B13 inhibitors on inflammatory cytokine expression HepG2 cells were exposed to various concentrations of HSD17B13 inhibitors. Briefly, HepG2 cells, an immortalized human liver cancer cell line, were modified to overexpress HSD17B13. Cells were grown in EMEM (ATCC) with 10% FBS and penicillin/streptomycin. One day prior to transfection 750,000 cells were plated per well in a 6 well plate and cultured overnight. […] of pCMV6-Entry-HSD17B13 or empty vector (Origene) were transfected using Lipofectamine 3000 (Invitrogen) and the cells were cultured for 24 hours. Cells were split into selection media ([…] G418 (Gibco)) and a stable pool was established and verified by qPCR and western blotting using an anti-Flag antibody (Genscript). HepG2 cells overexpressing HSD17B13 or empty vector control, were seeded at 400,000 cells per well in 12 well plates and cultured overnight. Media was replaced with serum-free EMEM and cultured an additional night. A 12 mM fatty acid stock of oleic acid/palmitate at a 2:1 ratio was prepared in 10% fatty acid free BSA (Sigma) by combining 8 mM oleic acid and 4 mM palmitate and rotating overnight at 30° C. The solution was then sonicated for an additional 45 minutes to solubilize.
[…] The cells were lysed in RLT buffer and RNA purified using a Qiagen RNeasy mini kit. RNA quality and concentration were determined on a Nanodrop. cDNA was synthesized from 1 μg RNA using iScript reverse transcription supermix (Biorad) and rtPCR performed with 1 μl cDNA using SsoAdvanced Universal Probes Supermix (Biorad). Taqman probes (Thermo Fisher) were used to look at effects of fatty acids and HSD17B13 inhibitors on IL-8 and IL-32 gene expression using GAPDH as an endogenous control.

[4] = test system: HepG2 cells; assay: Toxicity to HepG2 cells in the cytokine expression experiment; format: cell-based, human; conditions: 30 μM
Method: as §1, §2

[5] = RESOLVE-IT, NCT02704403; cited from earlier work
[6] = 3 µM, 10 µM, or 30 µM, saturated fatty acid NASH challenge
[7] = 3-hour exposure to 3 μM, 10 μM, or 30 μM, fold change relative to untreated cells

| SMILES | IC50 [2] [nM] | also measured |
| --- | --- | --- |
| CS(=O)(=O)c1cccc(CN2C(=O)S/C(=C\c3c(F)cc(F)c(O)c3F)C2=O)c1 [Compound 5, (Z)-3-(3-(methylsulfonyl)benzyl)-5-(2,4,6-trifluoro-3-hydroxybenzylidene) thiazolidine-2,4-dione] | ≤ 1000 | expression of IL-8 (FIG. 1A) [1, 6]: decreased expression; relative expression levels of IL-8 [1, 7]: decreased; reduction in IL-32 expression ([3]; 3 μM dose): 60-70%; expression of IL-32 (FIG. 1B) [3, 6]: decreased expression; relative expression levels of IL-32 [3, 7]: decreased; toxicity to the cells [4]: some toxicity |
| O=C(c1ccc(-c2ccc(F)c(O)c2F)s1)c1ccc(F)c(O)c1F [Compound 32, (2,4-difluoro-3-hydroxyphenyl)(5-(2,4-difluoro-3-hydroxyphenyl)thiophen-2-yl)methanone] | 1000 to 5000 | – |
| NS(=O)(=O)c1cccc(CN2C(=O)S/C(=C\c3ccc(F)c(O)c3)C2=O)c1 [Compound 33, (Z)-3-((5-(4-fluoro-3-hydroxybenzylidene)-2,4-dioxothiazolidin-3-yl)methyl) benzenesulfonamide] | ≤ 1000 | – |
| NS(=O)(=O)c1cccc(CN2C(=O)S/C(=C\c3c(F)cc(F)c(O)c3F)C2=O)c1 [Compound 34, (Z)-3-((2,4-dioxo-5-(2,4,6-trifluoro-3-hydroxybenzylidene)thiazolidin-3-yl)methyl)benzenesulfonamide] | ≤ 1000 | – |
| O=C1S/C(=C\c2c(F)cc(F)c(O)c2F)C(=O)N1Cc1ccc(=O)[nH]c1 [Compound 35, (5Z)-3-[(6-oxo-1,6-dihydropyridin-3-yl)methyl]-5-[(2,4,6-trifluoro-3-hydroxyphenyl)methylidene]-1,3-thiazolidine-2,4-dione] | ≤ 1000 | – |
| O=C1S/C(=C\c2c(F)cc(F)c(O)c2F)C(=O)N1Cc1cc[nH]c(=O)c1 [Compound 36, (Z)-3-((2-oxo-1,2-dihydropyridin-4-yl)methyl)-5-(2,4,6-trifluoro-3-hydroxybenzylidene)thiazolidine-2,4-dione] | 1000 to 5000 | – |
| O=C1S/C(=C\c2c(F)ccc(O)c2F)C(=O)N1Cc1cccc(O)c1 [Compound 37, (Z)-5-(2,6-difluoro-3-hydroxybenzylidene)-3-(3-hydroxybenzyl)thiazolidine-2,4-dione] | > 5000 | – |
| O=C1S/C(=C\c2ccc3nn[nH]c3c2)C(=O)N1Cc1cccc(O)c1 [Compound 38, (Z)-5-((1H-benzo[d][1,2,3]triazol-6-yl)methylene)-3-(3-hydroxybenzyl)thiazolidine-2,4-dione] | ≤ 1000 | – |
| COc1cccc(CNC(=O)c2ccc3cc(F)c(O)c(F)c3n2)c1 [Compound 39, 6,8-difluoro-7-hydroxy-N-[(3-methoxyphenyl)methyl]quinoline-2-carboxamide] | 1000 to 5000 | – |
| CSc1ccc(C(=O)/C=C/c2cc(C)c(OC(C)(C)C(=O)O)c(C)c2)cc1 [Elafibranor] | – | Status (as of May 2020) [5]: Completed - failed |
